Source: patent US10077288B2, “Hydroxystatin derivatives for the treatment of arthrosis” (Merck Patent GmbH, priority 2012, dated 2018)

Key:
[1] = tested on: bovine explants (cartilage degradation, liberation of GAG); assay: Cartilage explant assay: pH-induced cartilage degradation, GAG release; format: cell-based; conditions: Bos taurus, 72 h, pH 5.5, 3 days
Excerpt: EXAMPLE 5: CARTILAGE EXPLANT ASSAY
In order to investigate the effect of potential cathepsin D inhibitors on cartilage degradation, a pH-induced model based on bovine explants is used. The pH of the medium in which the explants are cultivated is matched here to the pathophysiological pH of an arthrotic knee. This pH is pH 5.5. In this ex vivo model, potential cathepsin D inhibitors are subsequently investigated for their action with respect to stopping of the cartilage degradation process. If the cartilage is destroyed, glycosaminoglycans (GAGs) are released into the cell culture supernatant. The amount of GAGs liberated can be determined quantitatively with the aid of DMMB (dimethylmethylene blue hydrochloride). If sulfated GAGs are detected using dimethylmethylene blue hydrochloride, the decrease in the absorption at 633 nm is utilised. […] In order to determine the concentration, a calibration line is also recorded using chondroitin sulfate.
1.) Procedure: pH-Induced Cartilage Degradation of Bovine Explants
The bovine explants are firstly prepared. The induction of the cartilage degradation is carried out in 96-multiwell plates. One explant is cultivated per well. In each case, 200 μl of DMEM (incubation medium pH 5.5) without FBS+30 μg/ml of ascorbic acid are added. Thus negative control, explants (n=4) are incubated at pH 7.4 (without FBS). This control is not included in the calculation of the data, but instead ensures that the pH change has the desired effect on the liberation of GAG. At this point, the substances to be tested are added. No pre-incubation of the explants is carried out. The explants are cultivated with the corresponding substances for 3 days in the incubator at 37° C. and 7.5% CO2.
In order to investigate the effect of cathepsin D inhibitors on the liberation of GAG (glycosaminoglycan), the substances are employed in the desired concentration and cultivated for 3 days. The compounds to be tested are tested in a first experiment in a concentration of 1 μM and 1% of DMSO. Substances which have an effect of >50% on the liberation of GAG (this corresponds to <50% of the control in the Assay Explorer) are tested in the next experiment at 100 nM and 1% of DMSO. Substances which have an effect of >50% on the liberation of GAG under these conditions (this corresponds to <50% of the control in the Assay Explorer) are tested in a concentration/effect relationship. The compounds here are investigated in the following concentrations: 30 μM, 10 μM, 3 μM, 1 μM, 0.3 μM, 0.1 μM, 0.03 μM, 0.01 μM.
The positive control used is pepstatin A with a concentration of 0.01 μM. The assay window is defined by the control (pH 5.5), defined as 0% effect, and the control pH 5.5+0.01 μM pepstatin A, defined as 100% effect. After incubation for 3 days, the cell culture supernatants are collected and stored at −20° C. or measured directly. The amount of liberated GAG is measured photometrically.
The effect (1 value) of the respective substance in % based on the positive control (pH 5.5+0.01 μM pepstatin A) and the negative control (pH 5.5) is reported for concentrations of 1 μM and 100 nM. The value represents the average of 4 replicants. In the determination of a concentration/effect relationship, an IC50 value is reported to the database (Assay Explorer).
The cell culture supernatants (200 μl) are either measured directly or stored at −20° C. […] A rapid colour reaction occurs, which is subsequently measured at 633 nm using a plate reader (for example Envision). […]

recombinant human renin = target: T1, recombinant human renin (Homo sapiens, UniProt P00797); assay: In-vitro fluorescence assay for identification of renin-inhibitory activity; format: biochemical; conditions: recombinant human renin 10 nM, FRET substrate 5 μM, pH 7.2; read-out: Renin selectivity IC50
T1 construct: purchased Proteos, Kalamazoo, Mich
T1 sequence (P00797 67-406): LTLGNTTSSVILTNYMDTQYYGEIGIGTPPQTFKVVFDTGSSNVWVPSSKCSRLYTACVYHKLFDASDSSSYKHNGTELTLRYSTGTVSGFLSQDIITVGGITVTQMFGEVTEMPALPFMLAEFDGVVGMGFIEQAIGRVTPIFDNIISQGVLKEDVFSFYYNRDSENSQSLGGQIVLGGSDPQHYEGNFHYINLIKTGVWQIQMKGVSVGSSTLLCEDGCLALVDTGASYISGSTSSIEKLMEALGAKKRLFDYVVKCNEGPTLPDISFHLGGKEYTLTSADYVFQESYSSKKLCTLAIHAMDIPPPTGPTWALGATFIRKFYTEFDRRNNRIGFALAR
Protocol: EXAMPLE 8: IN-VITRO FLUORESCENCE ASSAY FOR IDENTIFICATION OF RENIN-INHIBITORY ACTIVITY
In order to identify modulators of renin activity, a continuous enzymatic test was carried out with a synthetic peptide which carries a fluorescent group Edans (=(5-(aminoethyl)aminonaphthalenesulfonate) which is quenched by energy transfer from a Dabcyl (4′-dimethylaminoazobenzene-4-carboxylate) group on the same molecule, in Greiner 384-well microtitre plates. Cleavage of the peptidic substrate by renin causes an increase in the fluorescence intensity. In order to determine the efficacy of substances, the time-dependent increase in the fluorescence intensity in the presence of the substance was compared with the time-dependent increase in fluorescence in the absence of substances. The reference substance used was renin inhibitor 2 (Z-Arg-Arg-Pro-Phe-His-Sta-Ile-His N-Boc-Lys methyl ester Z) (Sigma-Aldrich). The substrate used was renin FRET substrate I (DABCYL-g-Abu-Ile-His-Pro-Phe-His-Leu-Val-Ile-His-Thr-EDANS) (Anaspec, Fremont Calif.). The enzyme employed was recombinant human renin (Pro-teos, Kalamazoo, Mich.) in a final concentration of 10 nM. The test was carried out in 50 mM Mops buffer, 1.5% (v/v) of DMSO, 0.1% (w/v) of Igepal®, pH 7.2, 0.5% (w/v) of BSA. 2 μl of each substance solution with serially diluted substance concentration were added to in each case 4 μl of renin solution and incubated at room temperature for 15 min. The reaction was started by addition of 4 μl of substrate solution (final concentration 5 μM). After carrying out a starting-point fluorescence measurement (excitation wavelength 340 nm/emission wavelength 495 nm) using an Envision multilabel reader (Perkin Elmer), the reaction was incubated at 37° C. for 60 min. The amount of peptide fragment cleaved off during the reaction time was subsequently measured by determination of the increase in the fluorescence intensity at 495 nm (excitation wavelength 340 nm).
Result: all compounds measured have an IC50 of the renin selectivity of >30 μM (see Table 2 in Example 1).

Row | SMILES | IC50 [1] [nM] | IC50 (recombinant human renin) [nM]
1 | CC[C@H](C)[C@H](NC(=O)C[C@H](O)[C@H](Cc1ccccc1)NC(=O)[C@@H](NC(=O)Cc1cccc(OC)c1)C(C)C)C(=O)N[C@H](C(=O)O)C(C)C [Compound 20, (S)-2-[(2S,3S)-2-((3S,4S)-3-hydroxy-4-{(S)-2-[2-(3-methoxyphenyl)-acetylamino]-3-methylbutyrylamino}-5-phenylpentanoylamino)-3-methylpentanoylamino]-3-methylbutyric acid] | 47.9 | –
2 | CC[C@H](C)[C@H](NC(=O)C[C@H](O)[C@H](Cc1ccccc1)NC(=O)[C@@H](NC(=O)CCc1ccccc1)C(C)C)C(=O)N[C@H](C(=O)O)C(C)C [Compound 4, (S)-2-((2S,3S)-2-{(3S,4S)-3-hydroxy-4-[(S)-3-methyl-2-(3-phenyl-propionylamino)butyrylamino]-5-phenylpentanoylamino}-3-methylpentanoylamino)-3-methylbutyric acid] | 60.6 | –
3 | CC[C@H](C)[C@H](NC(=O)C[C@H](O)[C@H](Cc1ccccc1)NC(=O)[C@@H](NC(=O)CCCc1ccccc1)C(C)C)C(=O)N[C@H](C(=O)O)C(C)C [Compound 5, (S)-2-((2S,3S)-2-{(3S,4S)-3-hydroxy-4-[(S)-3-methyl-2-(4-phenyl-butyrylamino)butyrylamino]-5-phenylpentanoylamino}-3-methylpentanoylamino)-3-methylbutyric acid] | 989 | 20000
